From ChEMBL document CHEMBL1201862, “PubChem BioAssay data set” (2004)
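Compound exposure: 48 hours, 5 concentrations, 96-well plates. Abbreviation: GI50, concentration required for 50% inhibition of growth.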 Activity calls are given as the source filed them. Cut-off read from the data, not from the text of the source: active = GI50 up to about 1.1 µM and inactive = higher.

Columns and labels:
Assay in all cases: inhibition of tumour cell growth, NCI panel, 48 h
786-0 = tested on: 786-0
EKVX = tested on: EKVX
HCC 2998 = tested on: HCC 2998
HOP-62 = tested on: HOP-62
HT-29 = tested on: HT-29
KM-20L2 = tested on: KM-20L2
KM12 = tested on: KM12
MOLT-4 = tested on: MOLT-4
Malme-3M = tested on: Malme-3M
SNB-19 = tested on: SNB-19
TK-10 = tested on: TK-10
U-251 = tested on: U-251
UACC-257 = tested on: UACC-257
OVCAR-4 = tested on: OVCAR-4
SR = tested on: SR

Measured: GI50

COc1nc(=O)cc(N)n1C1OC(CO)C(O)C1O (stereo not drawn)
inactive: 786-0 > 100 µM | EKVX > 100 µM | HCC 2998 > 100 µM | HOP-62 > 100 µM | HT-29 > 100 µM | KM-20L2 > 100 µM | KM12 > 100 µM | MOLT-4 > 100 µM | Malme-3M > 100 µM | SNB-19 > 100 µM | TK-10 > 100 µM | U-251 > 100 µM | UACC-257 > 100 µM

C=C(c1ccccc1N)[C@@]1(O)C[C@H](/C(=C\C)CO)C[C@@H]1NCc1ccccc1
inactive: 786-0 20.6 µM | EKVX 37.1 µM | HCC 2998 15.7 µM | HOP-62 32.7 µM | HT-29 17.5 µM | KM-20L2 17.3 µM | KM12 18.2 µM | MOLT-4 18.2 µM | Malme-3M 13.4 µM | OVCAR-4 26.7 µM | SNB-19 23.2 µM | TK-10 20.8 µM | U-251 17.2 µM | UACC-257 17.9 µM

CC(C)c1ccc(C2C3=C(N=C4SCC(=O)N42)C(=O)c2ccccc23)cc1 (stereo not drawn)
inactive: 786-0 > 100 µM | EKVX 77.3 µM | HCC 2998 > 100 µM | HOP-62 > 100 µM | HT-29 > 100 µM | KM-20L2 > 100 µM | KM12 > 100 µM | MOLT-4 49.7 µM | Malme-3M > 100 µM | OVCAR-4 43.4 µM | SNB-19 64.9 µM | TK-10 > 100 µM | U-251 74 µM | UACC-257 > 100 µM

S=P(c1ccccc1)(c1ccccc1)C1(C2(P(=S)(c3ccccc3)c3ccccc3)CC2)CC1
inactive: 786-0 > 100 µM | EKVX > 100 µM | HCC 2998 > 100 µM | HOP-62 > 100 µM | HT-29 > 100 µM | KM-20L2 > 100 µM | KM12 > 100 µM | MOLT-4 > 100 µM | OVCAR-4 > 100 µM | SNB-19 > 100 µM | SR > 100 µM | TK-10 > 100 µM | U-251 > 100 µM

Cc1ccccc1NC(=O)C(=O)C(C#N)c1ccc(Cl)cc1 (stereo not drawn)
inactive: 786-0 28 µM | EKVX > 100 µM | HCC 2998 19.6 µM | HOP-62 > 100 µM | HT-29 28.8 µM | KM-20L2 33.6 µM | KM12 44.6 µM | MOLT-4 52.6 µM | Malme-3M > 100 µM | SNB-19 63.2 µM | TK-10 81.5 µM | U-251 51.1 µM | UACC-257 > 100 µM

C/C(CC(=O)Nc1cccc(C)c1C)=N\NC(N)=S
inactive: 786-0 > 100 µM | EKVX > 100 µM | HCC 2998 > 100 µM | HOP-62 > 100 µM | HT-29 > 100 µM | KM-20L2 > 100 µM | KM12 > 100 µM | MOLT-4 > 100 µM | Malme-3M > 100 µM | OVCAR-4 > 100 µM | SNB-19 > 100 µM | SR 26.2 µM | TK-10 > 100 µM | U-251 > 100 µM | UACC-257 > 100 µM

NS(=O)(=O)c1cc2c(cc1Cl)NC(/C(=N/NC(=O)c1ccncc1)C1C(=O)NC(=O)NC1=O)=NS2(=O)=O
inactive: 786-0 > 100 µM | EKVX > 100 µM | HCC 2998 > 100 µM | HOP-62 > 100 µM | KM-20L2 > 100 µM | KM12 > 100 µM | MOLT-4 > 100 µM | Malme-3M > 100 µM | OVCAR-4 > 100 µM | SNB-19 83.6 µM | TK-10 > 100 µM | U-251 > 100 µM | UACC-257 > 100 µM

O=C(CSc1nc(-c2ccccc2)c(-c2ccccc2)[nH]1)N/N=C/c1ccc(O)cc1
inactive: 786-0 22.6 µM | EKVX 30.1 µM | HCC 2998 19.6 µM | HOP-62 19.3 µM | HT-29 18.9 µM | KM-20L2 24.5 µM | KM12 22.6 µM | MOLT-4 15.7 µM | Malme-3M 21.4 µM | SNB-19 32.5 µM | SR 16.4 µM | TK-10 27.6 µM | U-251 20.3 µM | UACC-257 4.86 µM

NNC(=O)/C(=C/c1ccc(Cl)c(Cl)c1)NC(=O)c1ccccc1
inactive: 786-0 > 100 µM | EKVX > 100 µM | HCC 2998 > 100 µM | HOP-62 > 100 µM | HT-29 > 100 µM | KM-20L2 > 100 µM | KM12 > 100 µM | MOLT-4 80.5 µM | Malme-3M > 100 µM | OVCAR-4 76 µM | SNB-19 > 100 µM | TK-10 > 100 µM | U-251 > 100 µM | UACC-257 > 100 µM
